The values below come from US9862690B2, “Treatment of pulmonary and other conditions” (University of Pittsburgh—of the Commonwealth System of …, priority 2013, dated 2018).

A short description of data set [1]: TRAP assay (quenching of ABTS+ radical cation). Format: biochemical. To be noted: 10 μmol compound, 5 min, absorbance 734 nm; Troxol reference. The method, then:
The anti-oxidant activities of PB 141 were determined by the ability of this compound to react with pre-formed radical monocation of 2,2′-azinobis-(3-ethylbenzothiazoline)-6-sulfonic acid (ABTS^+). Data are representative of one of two independent experiments; n=3; *** P<0.001 versus Troxol.
The anti-oxidant activity of PB141 or PB157 was determined by the ability of these compounds to react with the pre-formed radical monocation of 2,2′-azinobis-(3-ethylbenzothiazoline)-6-sulfonic acid (ABTS^+). ABTS (1.8 mmol) was reacted overnight with potassium persulfate (0.63 mmol) in double distilled water, at room temperature in the dark, to generate the dark blue ABTS^+ radical cation. This radical cation has a maximum absorption at 734 nm. Immediately prior to the experiment, ABTS^+ was diluted with absolute ethanol to an absorbance of approximately 0.7 at 734 nm. PB141 or PB157 (10 μmol) was added to ABTS^+ (1 ml) and mixed by vortexing. The reaction was allowed to stabilize for 5 min and the absorbance was measured. The anti-oxidant activities of these compounds were determined by their ability to quench the color of the radical cation. Troxol (10 μmol) was used as reference standard.

In data set [2] the test system is mice (lung, kidney, liver and other organs). Description: Toxicity of long-term, high-dose nebulized delivery. It counts as in vivo. To be noted: 25 mg/kg or 250 mg/kg aerosolized daily up to 30 days. On the procedure:
(§1) PB141 was delivered to mice by nebulization at doses of 25 or 250 mg/kg for up to 30 days. (A) Lungs were excised, sectioned, and examined histologically for evidence of inflammation or injury. (B) Potential kidney and liver injury were assessed by serum levels of creatinine, AST, and ALT. […] Acute lung injury was induced in mice by intratracheal administration of LPS. Thirty min later PBS or varying concentrations of PB141 were delivered into cage air by nebulization. Following sacrifice, nuclear proteins were isolated from lungs and used to determine DNA-binding activity of the p65 subunit of the pro-inflammatory transcription factor NF-κB.
PB141 (25 mg/kg or 250 mg/kg) was aerosolized to mice daily for up to 30 consecutive days. The standard dose used in efficacy studies is 25 mg/kg for 1-10 days. At the conclusion of each experiment blood was collected and the lungs were excised and examined histopathologically for evidence of injury or toxicity. Serum levels of creatinine and aspartate (AST) and alanine (ALT) aminotransferases were measured using enzyme-linked immunosorbent assay (ELISA) kits (R&D Systems, Minneapolis, Minn.) according to the manufacturer's instructions. At the end of 30 days' exposure, other organs were also excised and similarly examined (data not shown).

Data set [3] deals with human lung fibroblasts (IMR-90; fibroblasts of normal or UIP patients). The data set can be described thus: TGF-β-treated lung fibroblast proliferation and myofibroblast differentiation. To be noted: pretreatment 0.1 to 1 μM, then TGF-β 24 h. Format: cell-based. The method, then:
IMR-90 cells were cultured in Dulbecco's modified Eagle's medium (DMEM) containing 10% heat-inactivated fetal bovine serum, penicillin, and streptomycin (100 IU/ml). Monolayer cultures were deprived of serum for 24 h, and treated with different concentrations of PB141 for different time periods as indicated. Cell numbers were then counted at 24, 48, and 72 h. Data are representative of one of two independent experiments; n=3.
IMR-90 cells were cultured in Dulbecco's modified Eagle's medium (DMEM) containing 10% heat-inactivated fetal bovine serum, penicillin, and streptomycin (100 IU/ml). Monolayer cultures were deprived of serum for 24 h, pre-treated with 0.5 μM PB141 or with vehicle (saline) for 1 h, and then exposed to 2 ng/ml TGF-β for 24 h. (A) Western blot analysis for α-smooth muscle actin. (B) Quantitative values for each condition. ***P<0.001 vs Veh. (C) Immunofluorescence microscopy for α-SMA following treatment. Blots and images are representative of two independent experiments.
Additional in vitro experiments were performed using normal human fetal lung fibroblasts (IMR-90; Institute for Medical Research, Camden, N.J.) or fibroblasts grown from mechanically dissociated surgical lung biopsy of histologically normal or usual interstitial pneumonia (UIP) patients. […]

For the next data set, the target named is T1, p65 subunit of NF-κB (Mus musculus, UniProt Q04207).
T1 construct: Following sacrifice, nuclear proteins were isolated from lungs; from tissue; host or cells: mouse lung (nuclear proteins)
T1 sequence (Q04207 whole entry): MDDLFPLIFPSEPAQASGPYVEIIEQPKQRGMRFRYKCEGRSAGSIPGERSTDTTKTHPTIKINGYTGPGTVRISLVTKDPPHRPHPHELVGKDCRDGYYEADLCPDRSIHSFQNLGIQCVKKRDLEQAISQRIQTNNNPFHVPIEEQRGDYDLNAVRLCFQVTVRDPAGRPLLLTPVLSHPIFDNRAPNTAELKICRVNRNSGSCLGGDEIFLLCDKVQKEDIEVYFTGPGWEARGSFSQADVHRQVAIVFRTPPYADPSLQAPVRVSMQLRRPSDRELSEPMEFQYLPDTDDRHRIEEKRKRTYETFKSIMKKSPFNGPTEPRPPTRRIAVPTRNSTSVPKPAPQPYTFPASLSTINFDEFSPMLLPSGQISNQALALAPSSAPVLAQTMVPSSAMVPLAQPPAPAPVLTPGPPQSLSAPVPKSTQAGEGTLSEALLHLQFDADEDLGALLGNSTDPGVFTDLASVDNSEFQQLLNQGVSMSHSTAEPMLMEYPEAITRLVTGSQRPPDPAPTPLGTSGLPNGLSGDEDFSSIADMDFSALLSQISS
Description: LPS-induced lung NF-κB p65 DNA-binding activity after nebulized delivery. Format: in vivo, mice. To be noted: i.t. LPS; different concentrations nebulized 30 min later for 30 min. On the procedure:
as §1
In other experiments, acute lung injury was induced by intratracheal (i.t.) injection of endotoxin [lipopolysaccharide (LPS)] prepared from Escherichia coli O111:B6 (Sigma-Aldrich; St. Louis, Mo.). Thirty minutes later different concentrations of PB141 in isotonic saline were nebulized and delivered into cage air for 30 min using a micropump nebulizer (Buxco Research Systems, Wilmington, N.C.) fitted at the chamber inlet and flowing at 10 L of air/min. PBS was similarly delivered as a control. Nuclear proteins were prepared from lung samples and their concentrations were determined and used to quantify DNA-binding activity of the p65 subunit of the pro-inflammatory transcription factor NF-κB.

The test system of data set [4] is cigarette smoke-induced COPD in mice. Description: Cigarette smoke-induced COPD model. It counts as in vivo. The method, then: COPD was induced by exposure of mice to whole-body cigarette smoke for 5 days, at the end of which the mice were euthanized and cells and levels of mediators were obtained from the pulmonary airspace by bronchoalveolar lavage. Some mice received PB141 (25 mg/kg) simultaneously with the cigarette smoke (A-I).
Mice were exposed 5 days per week for 4 wk (sub-acute exposure) to the smoke of five cigarettes (Reference Cigarette 2R4F without filter; University of Kentucky) administered four times per day with a 30-min smoke-free interval between exposures. An optimal smoke:air ratio of 1:6 was obtained. In preventive studies, tobacco smoke exposure was paralleled by delivery of a nebulized solution containing PB141 (25 mg/kg) or vehicle (saline) via a micropump nebulizer (Buxco Research Systems, Wilmington, N.C.). At the conclusion of smoke exposure the extent of lung inflammation was assessed by counting polymorphonuclear neutrophils (PMNs) in bronchoalveolar lavage fluid and measuring lung vascular permeability, edema, pulmonary lymphoid aggregation, and generation of inflammatory chemokines and cytokines. Emphysema was assessed by destruction of alveolar walls, quantitated as the destructive index (DI), and by enlargement of alveolar spaces, quantitated by the mean linear intercept (Lm). Airway remodeling was assessed by staining collagen in the airway wall and by measuring the amount of fibronectin. Lung histology sections were assessed for inflammation and injury following hematoxylin and eosin (H&E) staining. Lymphoid aggregates were quantification by morphometric analysis.

Where [5] appears, read: 25 mg/kg nebulized in parallel with smoke exposure.

The structures appear in SMILES notation.

Consider `CC(=O)N[C@@H](CSC(CC(=O)CC(SC[C@H](NC(C)=O)C(=O)O)c1cnccn1)c1cnccn1)C(=O)O` (stereo partly drawn) [PB141], for which the “Anti-oxidant activity (ability to quench ABTS+ radical cation)” value in data set [1] is on record as “clearly demonstrated”. In data set [2], the “Injury or toxicity (lung histopathology, serum creatinine, AST, ALT, other organs)” value was “No evidence of injury or toxicity”. In addition, the “Proliferation of human lung fibroblasts” value in data set [3] is “inhibited”. Further, the “Differentiation to myofibroblasts (α-SMA)” value in data set [3] (including UIP patient fibroblasts) is “inhibited”. The “LPS-induced upregulation of NF-κB in lung” value on p65 subunit of NF-κB is reported as “inhibited the LPS-induced upregulation of NF-κB in a concentration-dependent manner”. In data set [4] (setting [5]), the Airway wall remodeling entry is listed as “significantly decreased”, the “Cigarette smoke-induced increase of inflammatory cells in the lungs” value is “significantly decreased”, the “Development of pulmonary hypertension” value is reported as “significantly decreased” and the Emphysema result is on record as “significantly decreased”. Also, in data set [4] (setting [5]), the “Generation of inflammatory chemokines and cytokines” value is “significantly decreased”; the Pulmonary lymphoid aggregates result is “significantly decreased”. Also, the “Phagocytic ability of alveolar macrophages” value in data set [4] (administration by nebulization) is on record as “improved”.
